{
  "source": "patent US20220002288A1",
  "about": "“MONOBACTAM COMPOUNDS AND USE THEREFOR” (priority 2018, published 2022)",
  "key": {"[1]": {"experiment": "Pharmacokinetics of the compounds in mice", "assay_type": "in vivo, BALB/c mice", "source_text": "Animals: male BALB/c mice, SPF grade, purchased from Changzhou Cavens Experimental Animal Co., Ltd.; 16-24 g, license number: SCXK (Su)2016-0010; 2 to 3 days of adaptation period were given before the experiment.\nInstruments: API 4500 High Performance Liquid Chromatograph Coupled Triple Quadrupole Mass Spectrometer, and Analyst QS A01.01 Chromatography Workstation were both purchased from AB SCIEX of the United States; Milli-Q ultrapure water device was purchased from Millipore; CF16R XII desktop high-speed refrigerated centrifuge was purchased From Hitachi Company; Qilinbeier Vortex-5 oscillator was purchased from IKA Company of German; electric heating constant-temperature water bath was purchased from Changzhou Guohua Electric Appliance Co., Ltd.; electric pipette was purchased from Thermo Company of American; and microanalysis balance was purchased from Shanghai Mettler Co., Ltd.\n2 mg of the test compound was weighed, added to physiological saline, vortexed for 2 min, and ultrasonicated for 3 min, to prepare a test solution with a concentration of 0.2 mg/mL for intravenous administration.\nA single dose of 2 mg/kg of the test compound was administered to BALB/c mice via the tail vein, the dose volume being 0.1 mL/10 g. At 5 min, 15 min, 30 min, 1 h, 2 h, 4 h after administration, blood samples were collected from the orbital venous plexus into heparinized EP tubes (0.6 mL), which were temporarily placed on crushed ice.\nThe samples were centrifuged at 8000 rpm for 5 min. 15 μL of upper plasma were transferred to a 96-well plate. 150 μL of methanol:acetonitrile (v/v=1:1) (containing 20 ng/mL tolbutamide) was added to 15 μL of plasma, shaken for 3 min, and centrifuged at 4500 rpm for 5 min. 100 μL of supernatant was taken to a 2 mL deep well plate. 100 μL of diluent (pure water) was added. The samples were shaken for 3 min, and centrifuged at 4500 rpm for 5 min. 180 μL of the supernatant was transferred to the sample plate. The content of the compound in the supernatant sample was analyzed by LC-MS/MS, and various pharmacokinetic parameters were calculated with WinNonlin software."}, "[2]": {"tested_on": "clinically isolated Acinetobacter baumannii", "experiment": "MIC experiment of clinically sourced bacterial strains", "assay_type": "cell-based", "details": "for MIC: Acinetobacter baumannii", "experimental": "(§1) Compounds: the compound of Example 1 and Compound C of Comparative Example 3. Both test compounds were dissolved and diluted with DMSO, and the final concentrations were prepared as 64, 32, 16, 8, 4, 2, 1, 0.5, 0.25, 0.125, 0.0625 μg/mL in the experiment.\n(§2) Bacterial strains: clinically isolated Acinetobacter baumannii, Pseudomonas aeruginosa, Klebsiella pneumoniae and Escherichia coli, all provided by HD Biosciences (Shanghai) Co., Ltd.\n(§3) Medium: Trypticase soy agar (TSA) (BD BBL 211043), and Cation-adjusted Mueller Hinton broth (CAMHB) (BD BBL212322).\n(§4) The experimental method was the same as that in the above Experimental Example 1."}, "[3]": {"tested_on": "clinically isolated Escherichia coli", "experiment": "MIC experiment of clinically sourced bacterial strains", "assay_type": "cell-based", "experimental": "as §1, §2, §3, §4"}, "[4]": {"tested_on": "clinically isolated Klebsiella pneumoniae", "experiment": "MIC experiment of clinically sourced bacterial strains", "assay_type": "cell-based", "details": "for MIC: Klebsiella pneumoniae", "experimental": "as §1, §2, §3, §4"}, "[5]": {"tested_on": "clinically isolated Pseudomonas aeruginosa", "experiment": "MIC experiment of clinically sourced bacterial strains", "assay_type": "cell-based", "experimental": "as §1, §2, §3, §4"}, "[6]": {"tested_on": "Acinetobacter baumannii, Pseudomonas aeruginosa, and Escherichia coli", "experiment": "In vitro antibacterial activity, summary statements over all strains of Experimental Example 1", "assay_type": "cell-based", "details": "method of Experimental Example 1", "experimental": "Compounds: The compounds prepared in the above examples and comparative examples. All test compounds were dissolved and diluted with DMSO, and the final concentrations were prepared as 64, 32, 16, 8, 4, 2, 1, 0.5, 0.25, 0.125, 0.0625 μg/mL in the experiment.\nBacterial strains: 6 strains of Acinetobacter baumannii (codenames: HDBAB-YK4, HDBAB-YK7, HDBAB-YK12, HDBAB-YK16, HDBAB_OXA_7, ATCC 19606), 2 strains of Pseudomonas aeruginosa (codenames: HDBPA-YK9, HDBPA)-YK15), 1 strain of Escherichia coli (codename: CLB30048), all provided by HD Biosciences (Shanghai) Co., Ltd.\nThe minimum inhibitory concentration (MIC) of each compound was recorded according to the guidelines of the Clinical and Laboratory Standards Institute."}, "[7]": {"details": "mouse, male BALB/c mice, single intravenous dose 2 mg/kg, plasma"}},
  "note": "Structures can show the parent of a compound that is named as a salt.",
  "data": [
    {"smiles": "CC1(C)[C@H](NC(=O)/C(=N\\O[C@@H](COc2ccc(C(=O)Nc3cn(CCCN)[n+](CC4CNC4)c3)cc2)C(=O)O)c2csc(N)n2)C(=O)N1OS(=O)(=O)[O-]", "note": "[Example 1, (S)-3-((Z)-2-(((S)-2-(4-((1-(3-aminopropyl)-2-(azetidin-3-ylmethyl)-1H-pyrazol-2-ium-4-yl)carbamoyl)phenoxy)-1-carboxyethoxy)imino)-2-(2-aminothiazol-4-yl)acetylamino)-2,2-dimethyl-4-oxoazetidin-1-yl Sulfate]", "values": [
      {"measurement": "blood concentration (CO)", "setting": "[1]; intravenous dose of 2 mg/kg", "value": 11.548, "unit": "µg/mL"},
      {"measurement": "Vd", "setting": "[1]; male, BALB/c, mouse, plasma, iv, 2 mg/kg, male BALB/c mice, single intravenous dose 2 mg/kg, plasma, read-out: VSS", "value": 0.25, "unit": "L/kg"},
      {"measurement": "AUC(0-inf)", "setting": "[1]; [7]", "value": 3180, "unit": "ng·h/mL"},
      {"measurement": "AUC(0-t)", "setting": "[1]; [7]", "value": 3140, "unit": "ng·h/mL"},
      {"measurement": "C0", "setting": "[1]; [7]", "value": 11500, "unit": "ng/mL"},
      {"measurement": "clearance", "setting": "[1]; [7]", "value": 10.8, "unit": "mL/min/kg"},
      {"measurement": "half-life", "setting": "[1]; [7]", "value": 20.4, "unit": "min"},
      {"measurement": "MIC", "setting": "[2]; clinical strain A0242702", "value": "≤ 0.063", "unit": "µg/mL"},
      {"measurement": "MIC", "setting": "[2]; clinical strain A0244122", "value": 0.5, "unit": "µg/mL"},
      {"measurement": "MIC", "setting": "[2]; clinical strain A0248164", "value": 1, "unit": "µg/mL"},
      {"measurement": "MIC", "setting": "[2]; clinical strain A0248384", "value": 1, "unit": "µg/mL"},
      {"measurement": "MIC", "setting": "[2]; clinical strain A0252247", "value": "≤ 0.063", "unit": "µg/mL"},
      {"measurement": "MIC", "setting": "[2]; clinical strain A0254384", "value": "≤ 0.063", "unit": "µg/mL"},
      {"measurement": "MIC", "setting": "[2]; clinical strain A0255830", "value": 4, "unit": "µg/mL"},
      {"measurement": "MIC", "setting": "[2]; clinical strain A0257674", "value": "≤ 0.063", "unit": "µg/mL"},
      {"measurement": "MIC", "setting": "[2]; clinical strain A0258522", "value": "≤ 0.063", "unit": "µg/mL"},
      {"measurement": "MIC", "setting": "[2]; clinical strain A0262855", "value": "≤ 0.063", "unit": "µg/mL"},
      {"measurement": "MIC", "setting": "[2]; clinical strain A0270386", "value": 1, "unit": "µg/mL"},
      {"measurement": "MIC", "setting": "[2]; clinical strain A0272260", "value": 0.125, "unit": "µg/mL"},
      {"measurement": "MIC", "setting": "[2]; clinical strain A0273375", "value": 1, "unit": "µg/mL"},
      {"measurement": "MIC", "setting": "[2]; clinical strain A0273826", "value": 4, "unit": "µg/mL"},
      {"measurement": "MIC", "setting": "[2]; clinical strain A0274925", "value": 0.125, "unit": "µg/mL"},
      {"measurement": "MIC", "setting": "[2]; clinical strain A0283307", "value": "≤ 0.063", "unit": "µg/mL"},
      {"measurement": "MIC", "setting": "[2]; clinical strain A0284214", "value": "≤ 0.063", "unit": "µg/mL"},
      {"measurement": "MIC", "setting": "[2]; clinical strain A0284295", "value": "≤ 0.063", "unit": "µg/mL"},
      {"measurement": "MIC", "setting": "[2]; clinical strain A0284552", "value": 0.5, "unit": "µg/mL"},
      {"measurement": "MIC", "setting": "[2]; clinical strain A0285002", "value": 1, "unit": "µg/mL"},
      {"measurement": "MIC", "setting": "[2]; clinical strain A0285050", "value": 0.125, "unit": "µg/mL"},
      {"measurement": "MIC", "setting": "[2]; clinical strain A0285231", "value": 1, "unit": "µg/mL"},
      {"measurement": "MIC", "setting": "[2]; clinical strain A0285299", "value": "≤ 0.063", "unit": "µg/mL"},
      {"measurement": "MIC", "setting": "[2]; clinical strain A0285369", "value": "≤ 0.063", "unit": "µg/mL"},
      {"measurement": "MIC", "setting": "[2]; clinical strain A0285909", "value": 4, "unit": "µg/mL"},
      {"measurement": "MIC", "setting": "[2]; clinical strain A0286065", "value": 1, "unit": "µg/mL"},
      {"measurement": "MIC90", "setting": "[2]; clinically isolated Acinetobacter baumannii", "value": 4, "unit": "µg/mL"},
      {"measurement": "MIC value relative to that of Compound C", "setting": "[2]; strains A0244122, A0255830, A0273826, A0285299, A0285909", "value": "¼"},
      {"measurement": "MIC", "setting": "[3]; clinical strain HDB0140", "value": 1, "unit": "µg/mL"},
      {"measurement": "MIC", "setting": "[3]; clinical strain HDB0918", "value": 0.25, "unit": "µg/mL"},
      {"measurement": "MIC", "setting": "[3]; clinical strain HDB1120", "value": "≤ 0.063", "unit": "µg/mL"},
      {"measurement": "MIC", "setting": "[3]; clinical strain HDB5510", "value": 0.125, "unit": "µg/mL"},
      {"measurement": "MIC", "setting": "[3]; clinical strain HDB8244", "value": 0.5, "unit": "µg/mL"},
      {"measurement": "MIC", "setting": "[4]; clinical strain Kp309", "value": "≤ 0.063", "unit": "µg/mL"},
      {"measurement": "MIC", "setting": "[4]; clinical strain Kp310", "value": "≤ 0.063", "unit": "µg/mL"},
      {"measurement": "MIC", "setting": "[4]; clinical strain Kp472", "value": 0.125, "unit": "µg/mL"},
      {"measurement": "MIC", "setting": "[4]; clinical strain Kp510", "value": 0.25, "unit": "µg/mL"},
      {"measurement": "MIC value relative to that of Compound C", "setting": "[4]; strain Kp309", "value": "¼"},
      {"measurement": "MIC", "setting": "[5]; clinical strain P7", "value": 1, "unit": "µg/mL"},
      {"measurement": "MIC", "setting": "[5]; clinical strain P43", "value": 0.25, "unit": "µg/mL"},
      {"measurement": "MIC", "setting": "[5]; clinical strain P155", "value": 1, "unit": "µg/mL"},
      {"measurement": "MIC", "setting": "[5]; clinical strain P157", "value": 1, "unit": "µg/mL"},
      {"measurement": "MIC", "setting": "[5]; clinical strain P162", "value": 1, "unit": "µg/mL"},
      {"measurement": "in vitro antibacterial activity (in words)", "setting": "[6]", "value": "excellent antibacterial activity"}
    ]}
  ]
}
